Test results from patent US12509437B2, “Substituted thiophene carboxamides and derivatives thereof as microbicides” (Bayer Aktiengesellschaft, priority 2019, dated 2025).

What was measured:
[1] = LogP by HPLC on reversed phase columns (EEC directive 79/831 Annex V.A8); assay type: physicochemical; conditions: reversed phase HPLC columns; method [a]
In short: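 Reversed-phase HPLC, calibrated with straight-chain alkan-2-ones (C3–C16) of known LogP; values by linear interpolation of retention times between successive alkanones. Multiple values from one method are joined by "+"; lambda-max taken from 200–400 nm UV spectra at chromatographic peaks.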

[2] = system: Pseudomonas syringae pv. tomato; assay: Pseudomonas syringae pv. tomato in vitro cell test; assay type: cell-based; conditions: 20 ppm of active ingredient, 24 h of incubation, read-out: efficacy (inhibition of bacteria growth; no direct activity)
Procedure: (§1) • Solvent: DMSO • Culture medium: LB broth medium (Luria Broth Miller) Sigma • Inoculum: bacteria suspension Compounds were solubilized in DMSO and the solution used to prepare the required range of concentrations. The final concentration of DMSO used in the assay was ≤1%. Inoculum was prepared from a pre-culture of bacteria grown in liquid medium and diluted to the desired optical density (OD). Compounds were evaluated for their ability to inhibit bacteria growth in liquid culture assay. The compounds were added in the desired concentrations to culture medium containing the bacteria suspension. After 24 h of incubation, the efficacy of compounds was determined by spectrometric measurement of bacteria growth. Inhibition was determined by comparing the absorbance values in wells containing the compounds with the absorbance in control wells without active ingredients.

[3] = system: Peronospora parasitica; assay: In vivo preventive test on Peronospora parasitica (Crucifer downy mildew) on cabbage; conditions: Hyaloperonospora parasitica, 120 h, sprayed 72 hours before inoculation, evaluated 5 days after inoculation, read-out: efficacy; for pest or weed control at 125 ppm: 125 ppm of active ingredient; for pest or weed control at 500 ppm: 500 ppm of active ingredient; for pest or weed control at 31 ppm: 31 ppm of active ingredient
Procedure: (§2) The tested active ingredients were prepared by homogenization in a mixture of acetone/Dimethyl sulfoxide/Tween®, and then diluted with water to obtain the desired active material concentration.
(§3) The young plants of cabbage were treated by spraying the active ingredient prepared as described above. Control plants were treated only with an aqueous solution of acetone/Dimethyl sulfoxide/Tween®.
After 72 hours, the plants were contaminated by spraying the leaves with an aqueous suspension of Peronospora parasitica spores. The contaminated cabbage plants were incubated for 5 days at 20° C. and at 100% relative humidity.
The test was evaluated 5 days after the inoculation. 0% means an efficacy which corresponds to that of the control plants while an efficacy of 100% means that no disease was observed.

[4] = system: Colletotrichum lindemuthianum; assay: Colletotrichum lindemuthianum in vitro cell test; assay type: cell-based; conditions: 144 h, 6 days incubation, read-out: efficacy (inhibition of fungal growth; no direct activity); for inhibition at 5 ppm: 5 ppm of active ingredient; for inhibition at 20 ppm: 20 ppm of active ingredient
Procedure: (§4) • Solvent: DMSO • Culture medium: 14.6 g anhydrous D-glucose (VWR), 7.1 g Mycological Peptone (Oxoid), 1.4 g granulated Yeast Extract (Merck), QSP 1 liter • Inoculum: spores suspension Fungicides were solubilized in DMSO and the solution used to prepare the required range of concentrations. The final concentration of DMSO used in the assay was ≤[…]1%. A spore suspension of C. lindemuthianum was prepared and diluted to the desired spore density. Fungicides were evaluated for their ability to inhibit spores germination and mycelium growth in liquid culture assay. The compounds were added in the desired concentration to the culture medium with spores. After 6 days incubation, fungi-toxicity of compounds was determined by spectrometric measurement of mycelium growth. Inhibition of fungal growth was determined by comparing the absorbance values in wells containing the fungicides with the absorbance in control wells without fungicides.

[5] = system: salicylate responsive promoter sequence of the PR1 (pathogenesis-related protein I) gene (AT2G14610); assay: Induction of defense gene expression in Arabidopsis thaliana (PR1 promoter-GFP reporter plants); assay type: in vivo; conditions: 72 h, 3rd day after spraying, mock treated leaves set as 1.00, read-out: relative fluorescence value
Procedure: Arabidopsis thaliana reporter plants containing the coding sequence of a green fluorescent protein (GFP) linked to the salicylate responsive promoter sequence of the PR1 (pathogenesis-related protein I) gene (AT2G14610) were grown for five days and then sprayed with compounds. On the 3rd day after spraying, plant fluorescence was assessed with a MacroFluo instrument from Leica Microsystems (Wetzlar, Germany). Fluorescences were quantified with the Meta-Morph Microscopy Automation & Image Analysis Software (Molecular Devices, Sunnyvale, Calif., United States). Background fluorescence in mock treated leaves was set as 1.00.

[6] = system: Colletotrichum lindemuthianum; assay: In vivo preventive test on Colletotrichum lindemuthianum (Anthracnose on bean); conditions: Colletotrichum lindemuthianum, 144 h, sprayed 72 hours before inoculation, evaluated 6 days after inoculation, read-out: efficacy; for pest or weed control at 500 ppm: 500 ppm of active ingredient; for pest or weed control at 125 ppm: 125 ppm of active ingredient
Procedure: as §2
(§5) The young plants of bean were treated by spraying the active ingredient prepared as described above. Control plants were treated only with an aqueous solution of acetone/Dimethyl sulfoxide/Tween®.
After 72 hours, the plants were contaminated by spraying the leaves with an aqueous suspension of Colletotrichum lindemuthianum spores. The contaminated bean plants were incubated for 24 hours at 20° C. and at 100% relative humidity and then for 5 days at 20° C. and at 90% relative humidity.
The test was evaluated 6 days after the inoculation. 0% means an efficacy which corresponds to that of the control plants while an efficacy of 100% means that no disease was observed.

[7] = system: Uromyces appendiculatus; assay: In vivo preventive test on Uromyces appendiculatus (bean rust); conditions: 240 h, sprayed 72 hours before inoculation, evaluated 10 days after inoculation, read-out: efficacy; for pest or weed control at 125 ppm: 125 ppm of active ingredient; for pest or weed control at 500 ppm: 500 ppm of active ingredient; for pest or weed control at 31 ppm: 31 ppm of active ingredient
Procedure: as §2, §5
After 72 hours, the plants were contaminated by spraying the leaves with an aqueous suspension of Uromyces appendiculatus spores. The contaminated bean plants were incubated for 24 hours at 20° C. and at 100% relative humidity and then for 9 days at 20° C. and at 70-80% relative humidity.
The test was evaluated 10 days after the inoculation. 0% means an efficacy which corresponds to that of the control plants while an efficacy of 100% means that no disease was observed.

[8] = system: Xanthomonas campestris pv. campestris; assay: Xanthomonas campestris pv. campestris in vitro cell test; assay type: cell-based; conditions: 24 h of incubation, read-out: efficacy (inhibition of bacteria growth; no direct activity); for inhibition at 5 ppm: 5 ppm of active ingredient; for inhibition at 20 ppm: 20 ppm of active ingredient
Procedure: as §1

[9] = system: Alternaria alternata; assay: Alternaria alternata in vitro cell test; assay type: cell-based; conditions: 120 h, 5 days incubation, read-out: efficacy (inhibition of fungal growth; no direct activity); for inhibition at 5 ppm: 5 ppm of active ingredient; for inhibition at 20 ppm: 20 ppm of active ingredient
Procedure: as §4, with “of A. alternata” for “of C. lindemuthianum”, “inhibit spore” for “inhibit spores”, “After 5” for “After 6”

[10] = system: Xanthomonas campestris pv. campestris; assay: In vivo preventive test on Xanthomonas campestris pv. campestris (black rot on cabbage); conditions: Xanthomonas campestris, sprayed 72 hours before inoculation, evaluated 8 or 10 days after inoculation, read-out: efficacy; for pest or weed control at 31 ppm: 31 ppm of active ingredient; for pest or weed control at 125 ppm: 125 ppm of active ingredient
Procedure: as §2, §3
After 72 hours, the plants were contaminated by spraying the leaves with an aqueous bacteria suspension of Xanthomonas campestris pv. campestris. The contaminated cabbage plants were incubated for 8 or 10 days at 27° C. at 95% relative humidity.
The test was evaluated 8 or 10 days after the inoculation. 0% means an efficacy which corresponds to that of the control plants while an efficacy of 100% means that no disease was observed.

Row | Structure (SMILES) | chromatographic logP [1] | inhibition at 20 ppm [2] [%] | pest or weed control at 125 ppm [3] [%] | pest or weed control at 500 ppm [3] [%] | inhibition at 5 ppm [4] [%] | fold induction at 75 ppm [5] | pest or weed control at 500 ppm [6] [%] | pest or weed control at 125 ppm [7] [%] | pest or weed control at 500 ppm [7] [%] | inhibition at 5 ppm [8] [%] | inhibition at 20 ppm [8] [%] | inhibition at 5 ppm [9] [%] | inhibition at 20 ppm [9] [%] | pest or weed control at 31 ppm [3] [%] | inhibition at 20 ppm [4] [%] | fold induction at 300 ppm [5] | pest or weed control at 31 ppm [7] [%] | pest or weed control at 31 ppm [10] [%] | pest or weed control at 125 ppm [10] [%] | also measured
1 | C=CC1CC1(NC(=O)c1sc(Br)c(Br)c1C)C(=O)OC (stereo not drawn) [I.003] | 3.48 | ≤ 30 | 80 to 89 | 90 to 100 | ≤ 30 | > 2 | 80 to 89 | 90 to 100 | 90 to 100 | ≤ 30 | ≤ 30 | ≤ 30 | ≤ 30 | – | – | – | – | – | – | –
2 | CCOC(=O)C1(NC(=O)c2sc(Br)c(Br)c2C)COC1 [I.014] | 2.9 | ≤ 30 | 90 to 100 | 90 to 100 | ≤ 30 | > 2 | 90 to 100 | 90 to 100 | 90 to 100 | ≤ 30 | ≤ 30 | ≤ 30 | ≤ 30 | 90 to 100 | ≤ 30 | > 2 | 90 to 100 | – | – | pest or weed control at 31 ppm ([6]; 31 ppm of active ingredient): 70 to 79%; pest or weed control at 125 ppm [6]: 80 to 89%
3 | CCOC(=O)C(Cc1c[nH]c2ccccc12)NC(=O)c1sc(Cl)c(Cl)c1C (stereo not drawn) [I.040] | 4.08 | ≤ 30 | – | 90 to 100 | – | > 2 | 90 to 100 | – | – | ≤ 30 | ≤ 30 | – | – | – | – | > 2 | – | – | – | pest or weed control at 125 ppm [6]: 90 to 100%
4 | Cc1c(C(=O)NC(Cc2c[nH]c3ccccc23)C(=O)O)sc(Cl)c1Cl (stereo not drawn) [I.070] | 3.12 | ≤ 30 | 90 to 100 | 90 to 100 | ≤ 30 | – | – | – | 90 to 100 | ≤ 30 | ≤ 30 | ≤ 30 | ≤ 30 | 70 to 79 | ≤ 30 | > 2 | – | 70 to 79 | 80 to 89 | –
5 | Cc1c(C(=O)NC(CC(N)=O)C(=O)O)sc(Br)c1Br (stereo not drawn) [I.076] | 1.73 | ≤ 30 | 90 to 100 | 90 to 100 | ≤ 30 | – | – | 80 to 89 | 90 to 100 | ≤ 30 | ≤ 30 | ≤ 30 | ≤ 30 | – | ≤ 30 | > 2 | – | 70 to 79 | – | –
6 | CCOC(=O)C(NC(=O)c1sc(Cl)c(Cl)c1C)C(F)(F)F (stereo not drawn) [I.164] | 4.07 | ≤ 30 | 90 to 100 | ≥ 90 | ≤ 30 | > 2 | – | 90 to 100 | – | ≤ 30 | ≤ 30 | ≤ 30 | ≤ 30 | 90 to 100 | ≤ 30 | > 2 | 90 to 100 | 80 to 89 | – | –
7 | COC(=O)C1(NC(=O)c2sc(Cl)c(Cl)c2C)CCC1 [I.171] | 3.5 | ≤ 30 | 90 to 100 | – | ≤ 30 | > 2 | – | 90 to 100 | – | ≤ 30 | ≤ 30 | ≤ 30 | ≤ 30 | 90 to 100 | – | > 2 | 80 to 89 | – | 70 to 79 | –
8 | Cc1c(C(=O)NC(C)(C)C(=O)O)sc(Cl)c1Cl [I.174] | 2.43 | ≤ 30 | 90 to 100 | – | ≤ 30 | > 2 | – | 90 to 100 | – | ≤ 30 | ≤ 30 | ≤ 30 | ≤ 30 | – | ≤ 30 | > 2 | 90 to 100 | – | 70 to 79 | –
